Data taken from publication PMC5062570 (Nature Communications, 2016).
“Also recorded” adds a separate entry of the source. Like-named read-outs stand apart in the source and are kept apart here.

Legend:
CatD [1] = details: read-out: IC50 against purified CatD in vitro; cited from earlier work
[2] = Plasma exposure (average unbound plasma concentration) in rats; type: in vivo, rat; details: Wistar Han, oral, rat, 29 days, average unbound plasma concentration, read-out: Avg Cp,u parent
Protocol: (§1) Wistar Han rats (obtained from Charles River, 125–300 g, 6–9 weeks old at study start, see Supplementary Table 7 for number of males and females) received daily oral dosing of test compounds or vehicle at the indicated concentrations for 7–29 days as indicated. The doses were prepared in a solution of 0.5% methylcellulose and 0.2% polysorbate 80, or 0.5% methylcellulose and hydroxypropyl methylcellulose acetate succinate (high fine grade) and delivered in a volume of 10 ml kg^−1 per day. Blood samples for bioanalytical analysis were collected in K2EDTA tubes via jugular vessel. Plasma was isolated after centrifugation and stored at −20 °C prior to analysis. Animals were given an additional dose the day after the end of the study (days 8, 15 or 30 for 7, 14 and 29 day studies, respectively) then killed by gas anaesthesia (isoflurane) followed by exsanguination ∼3 h after this final dose.
Plasma samples were analysed after protein precipitation by treating 20 μl of sample matrix with 200 μl of acetonitrile containing internal standard. All samples were centrifuged at 3,000 r.p.m. for 5 min. Then 100 μl of supernatant was transferred to a clean plate and evaporated to dryness under N2. Samples were reconstituted in 200 μl of 80:20 (v:v) acetonitrile:water. Samples were analysed on Waters Acquity UPLC connected to AB Sciex API5500 QTrap MS/MS.
Plasma protein binding was determined in the Rapid Equilibrium Device (RED, Thermo Scientific). Frozen plasma was warmed to 37 °C and adjusted to pH 7.4. The plasma was spiked with compound to a final concentration of 2 μM. Aliquots of spiked plasma were added to the donor (red) side, followed by addition of buffer to the receiver (white) side. The RED device was covered with a gas-permeable membrane and agitated within a humidified CO2 incubator (5% CO2, 75% relative humidity). Plasma (15 μl) and buffer (45 μl) were sampled from each insert and were matrix-matched with appropriate blank matrix (plasma with 45 μl buffer and buffer with 15 μl of plasma). Samples were protein-precipitated with acetonitrile containing internal standard, and the resulting supernatant was analysed by LC-MS/MS.

CatD [3] = biological target: T1, CatD (Homo sapiens, UniProt P07339); experiment: CatD cellular assay (competition of PF-7802 photolabelling in live ARPE-19 cells); type: cell-based; parameters: host or cells: ARPE-19; details: for CatD potency increase in live cells: CatD enzyme IC50 versus CatD cellular IC50; for IC50: live ARPE-19 cells, PF-7802 photoprobe 100 nM, 30 min
Protocol: ARPE-19 cells were plated at a density of 1.2 × 10^6 cells per well in six-well dishes 12–24 h before probe labelling. Culture media was removed completely and replaced with 1 ml of the appropriate serum-free media (no supplements) per well. Cells were then pretreated with test compounds at the indicated concentrations for 30 min (0.5% DMSO, 37 °C, 5% CO2). […] Ultraviolet irradiation was performed without culture plate lids for efficient irradiation, and samples were slowly rotated to prevent evaporation. After ultraviolet irradiation, cells were washed twice with Dulbecco's phosphate-buffered saline (DPBS), scraped into DPBS, centrifuged and stored as pellets at −80 °C.
Cells were lysed with sonication on ice in 70 μl DPBS and protein concentrations were determined using a BCA assay (Pierce). Total protein concentrations were then normalized to 1 mg ml^−1 in 50 μl total volume before addition of 5.5 μl click chemistry mix (1 : 3 : 1 : 0.5 volume of 50 mM CuSO4 (Sigma) in H2O : 1.7 mM TBTA (Sigma) in 4:1 t-BuOH:DMSO : 50 mM TCEP (Hampton Research) in dPBS : 10 mM TAMRA-azide (Lumiprobe) in DMSO - mixed immediately before use. Reagent solutions can be premade and stored at 4 °C except for TCEP, which should be made immediately before use). […] All fluorescence gels are presented in greyscale.
Target sequence in this assay (P07339 169-412 limits assumed): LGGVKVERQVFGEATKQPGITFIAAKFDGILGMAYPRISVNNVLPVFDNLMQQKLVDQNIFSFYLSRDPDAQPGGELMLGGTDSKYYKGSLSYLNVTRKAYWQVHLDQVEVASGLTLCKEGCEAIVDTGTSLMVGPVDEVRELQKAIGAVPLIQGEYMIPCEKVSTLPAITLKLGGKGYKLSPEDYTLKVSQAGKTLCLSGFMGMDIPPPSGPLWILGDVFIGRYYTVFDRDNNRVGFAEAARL
Target sequence in this assay (P07339 65-162 limits assumed): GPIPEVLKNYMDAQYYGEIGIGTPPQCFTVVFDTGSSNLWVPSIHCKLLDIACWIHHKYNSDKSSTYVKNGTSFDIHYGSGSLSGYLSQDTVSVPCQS

[4] = tested on: retinal pigment epithelium (RPE); experiment: Exploratory toxicology, ocular toxicity by retinal histology in rats; type: in vivo; details: for Female ocular toxicity incidence (positive or negative animals / total evaluated) / Female ocular toxicity outcome / Male ocular toxicity incidence (positive or negative animals / total evaluated) / Male ocular toxicity outcome: rat; for Ocular toxicity: 29-day studies with high daily doses
Protocol: as §1

BACE1 [5] = biological target: T2, BACE1 (Homo sapiens, UniProt P56817); experiment: BACE1 biochemical cellular assay (sAPPβ ELISA in H4 cells overexpressing APP695); type: cell-based; parameters: endogenous in cells; host or cells: H4 human neuroglioma cells overexpressing human APP695; details: for BACE1 potency increase in live cells: BACE1 enzyme IC50 versus BACE1 cellular IC50; for IC50: sAPPβ ELISA, H4 neuroglioma cells with human wild-type APP
Protocol: Cellular inhibition of BACE1 was determined by measuring sAPPβ, the primary cleavage product of BACE-1, in H4 human neuroglioma cells overexpressing the wild-type human APP695. […] The colorimetric reaction was read by an EnVision plate reader (PerkinElmer).
Target sequence in this assay (P56817 46-501): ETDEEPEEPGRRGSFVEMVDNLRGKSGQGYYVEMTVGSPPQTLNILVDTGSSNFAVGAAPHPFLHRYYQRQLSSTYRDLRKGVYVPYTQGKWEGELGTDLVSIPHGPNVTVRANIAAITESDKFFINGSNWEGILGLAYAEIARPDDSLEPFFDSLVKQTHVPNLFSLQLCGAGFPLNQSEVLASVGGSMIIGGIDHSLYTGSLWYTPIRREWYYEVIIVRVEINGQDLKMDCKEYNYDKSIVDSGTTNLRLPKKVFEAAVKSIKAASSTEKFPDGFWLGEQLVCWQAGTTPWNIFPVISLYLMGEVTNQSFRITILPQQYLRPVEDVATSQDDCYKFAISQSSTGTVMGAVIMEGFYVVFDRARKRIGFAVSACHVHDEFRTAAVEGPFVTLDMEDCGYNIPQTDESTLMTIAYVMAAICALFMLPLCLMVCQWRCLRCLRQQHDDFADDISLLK

CatD [6] = biological target: T1, CatD; experiment: CatD purified enzyme fluorescence polarization assay; type: biochemical; parameters: final maturation into a non-covalently associated heavy chain and light chain; purchased Sigma C8696; host or cells: human liver; details: for IC50: purified human enzyme, fluorescence polarization, substrate-based
Protocol: (§2) Purified enzyme inhibition of BACE1, BACE2, CatD and CatE was determined using fluorescence polarization (FP) assays. Briefly, purified enzymes were treated with test compounds (1% DMSO, 37 °C) in the presence of synthetic peptide substrates (150 nM) in 30 μl total volume of NaOAc buffer (100 mM, pH 4.5, 0.0001% Tween-20) in a 384-well plate. After incubation, reactions were stopped and substrate captured by the addition of 1.5 μM streptavidin, and FP measured with an EnVision plate reader (PerkinElmer, excitation 485 nm, emission 530 nm). […] BACE2 activity was assessed with 0.5 nM recombinant BACE2 (R&D Systems 4097-AS) and the same synthetic substrate used for BACE1, with a 1 h incubation time. […] CatE activity was assessed with 1.0 nM recombinant CatE (Creative BioMart CTSE-255H) and the same synthetic substrate used for CatD, with a 1.5 h incubation time.
Target sequence in this assay (P07339 65-162 limits assumed): as the sequence (P07339 65-162 limits assumed) above
Target sequence in this assay (P07339 169-412 limits assumed): as the sequence (P07339 169-412 limits assumed) above

[7] = pKa determination by multiplexed capillary electrophoresis; type: physicochemical; details: aqueous buffers
Protocol: All pKa values were determined at Analiza, Inc. by multiplexed capillary electrophoresis (mCE) using 96-capillary array electrophoresis instrument to measure the effective mobility (migration time of the compound in relation to neutral marker, DMSO) with ultraviolet detection. The pKa values were obtained from the ionization curves by plotting the compound effective mobility (24 points across pH range 1.7–11.2) versus pH. All pKa results were determined using aqueous buffers with method average absolute error 0.12.

BACE2 = biological target: T3, BACE2 (Homo sapiens, UniProt Q9Y5Z0); experiment: BACE2 purified enzyme fluorescence polarization assay; type: biochemical; details: purified human enzyme, fluorescence polarization
T3 construct: purchased R&D Systems 4097-AS
T3 sequence (Q9Y5Z0 63-518): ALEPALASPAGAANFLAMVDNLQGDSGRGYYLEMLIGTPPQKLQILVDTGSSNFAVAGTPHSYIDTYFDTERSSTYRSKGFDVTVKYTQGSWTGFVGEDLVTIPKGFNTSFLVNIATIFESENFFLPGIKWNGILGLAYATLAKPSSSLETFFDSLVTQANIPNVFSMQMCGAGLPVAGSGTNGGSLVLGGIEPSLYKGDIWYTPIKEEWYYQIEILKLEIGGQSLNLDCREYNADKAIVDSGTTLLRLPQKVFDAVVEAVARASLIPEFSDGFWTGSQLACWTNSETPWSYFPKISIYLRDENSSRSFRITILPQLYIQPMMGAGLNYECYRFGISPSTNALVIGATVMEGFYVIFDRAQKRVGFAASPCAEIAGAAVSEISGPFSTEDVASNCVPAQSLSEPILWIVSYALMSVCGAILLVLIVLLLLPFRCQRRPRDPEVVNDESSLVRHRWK
Protocol: as §2

BACE1 [8] = biological target: T2, BACE1; experiment: BACE1 purified enzyme fluorescence polarization assay; type: biochemical; parameters: His (C); made in house; host or cells: CHO-K1
Protocol: as §2
Target sequence in this assay (P56817 46-457): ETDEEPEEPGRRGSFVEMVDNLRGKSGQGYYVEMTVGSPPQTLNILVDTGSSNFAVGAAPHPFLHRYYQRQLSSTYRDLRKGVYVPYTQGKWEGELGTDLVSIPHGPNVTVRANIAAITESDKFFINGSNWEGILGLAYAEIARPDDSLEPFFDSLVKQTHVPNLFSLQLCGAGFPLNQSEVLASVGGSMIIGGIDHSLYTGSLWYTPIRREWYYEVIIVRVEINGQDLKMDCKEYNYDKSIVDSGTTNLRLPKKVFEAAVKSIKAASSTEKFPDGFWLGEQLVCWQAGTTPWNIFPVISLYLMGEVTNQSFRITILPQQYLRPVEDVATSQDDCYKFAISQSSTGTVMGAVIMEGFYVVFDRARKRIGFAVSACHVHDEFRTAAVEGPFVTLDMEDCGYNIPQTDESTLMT

CatD in ARPE-19 cells = CatD in ARPE-19 cells (Homo sapiens, UniProt P07339); experiment: Live cell lysosome neutralization and PF-7802 labelling of CatD; details: ammonium chloride 10 mM, 2 h or bafilomycin A1 400 nM, 4 h before labelling
CatD in ARPE-19 cells, sequence (P07339 169-412 limits assumed): as the sequence (P07339 169-412 limits assumed) above
CatD in ARPE-19 cells, sequence (P07339 65-162 limits assumed): as the sequence (P07339 65-162 limits assumed) above
Protocol: Immunoblots were scanned using a LiCor Odyssey. The integrated optical density of each in-gel fluorescence band was measured using ImageJ, and normalized to the CatD heavy chain protein level, also determined in ImageJ. For imaging experiments, cells were plated on coverslips and neutralized as described above. LysoSensor DND-189 (1 μM, Thermo Scientific) was then added for 30 min, followed by a 1 h washout in fresh culture media containing the neutralization reagents. Nuclei were stained with Hoescht 33342 for 5 min (20 μM, Thermo Fisher), and cells imaged live with a Zeiss LSM 780 Laser Scanning Confocal Microscope using a W Plan-Apochromat 63 × /1.0 M27 immersion objective. A 488 nm laser (10% laser power, detection from 490 to 552 nm) and 405 nm laser (6% laser power, detection from 410 to 468 nm) were used, respective detector gains set at 700 and 878, and 12-bit images acquired. Image processing was completed in ZEN lite 2012.

[9] = 29 days, 100 mg kg-1 once daily
[10] = purified human enzyme, fluorescence polarization, peptide substrate

Row | SMILES | CatD potency increase in live cells (CatD [3]) [x] | BACE1 potency increase in live cells (BACE1 [5]) [x] | IC50 (CatD [3]) [nM] | IC50 (BACE2) [nM] | IC50 (CatD [6]) [nM] | IC50 (BACE1 [5]) [nM] | IC50 (BACE1 [8]; [10]) [nM] | pKa [7] | also measured
1 | NC1=N[C@@]2(c3cc(NC(=O)c4ccc(F)cn4)ccc3F)COC[C@H]2CS1 [LY2886721, reference compound] | > 15 | 13 | – | – | – | – | – | – | IC50 (CatD [1]): > 100000 nM; concentration at 29 days ([2]; 100 mg kg-1 once daily): 3480 nM; CatD potency difference between cell-free enzyme and cellular assays (CatD [3]): > 15 fold; Female ocular toxicity incidence (positive or negative animals / total evaluated) [4, 9]: 4/4; Female ocular toxicity outcome [4, 9]: Neg (negative (neg) if there was no ocular abnormality observed); Male ocular toxicity incidence (positive or negative animals / total evaluated) [4, 9]: 4/4; Male ocular toxicity outcome [4, 9]: Neg (negative (neg) if there was no ocular abnormality observed); Retinal finding by fluorescence microscopy ([4]; rats, 100 mg kg-1 daily, 29 days): no ocular abnormality was observed; Ocular toxicity ([4]; rats): negative for ocular toxicity; also recorded: no ocular findings; also recorded: no ocular toxicity; Inhibition of purified CatD (CatD [6]; purified CatD biochemical substrate assay): inactive; pKa ([7]; read-out: pKa): 7.6
2 | NC1=N[C@@]2(c3ccc(F)cc3F)CO[C@@H](C(=O)O)C[C@H]2[C@@H](CF)S1 [PF-2696] | – | – | > 20000 | > 20000 | > 20000 | – | – | – | IC50 (BACE1 [8]; purified enzyme): > 20000 nM
3 | NC1=N[C@@]2(c3ccc(F)cc3F)CO[C@@H](c3cc(CO)no3)C[C@H]2[C@@H](CF)S1 [PF-3763] | 17 | 4.8 | 940 | 1600 | 16000 | 80 | 380 | 7.0 | –
4 | NC1=N[C@@]2(c3ccc(F)cc3F)CO[C@@H](c3nc(CO)co3)C[C@H]2[C@@H](CF)S1 [PF-7152] | 64 | 7.2 | 580 | 670 | 37000 | 64 | 460 | 6.9 | –
5 | C[C@H]1SC(N)=N[C@@]2(c3ccc(F)cc3F)CO[C@@H](c3cc(CO)no3)C[C@@H]12 [PF-9159] | 150 | 12 | 110 | – | 17000 | 17 | 210 | 7.8 | –
6 | COc1cnc(C(=O)Nc2ccc(F)c([C@]3(C)CS(=O)(=O)N(C)C(N)=N3)c2)cn1 [SG1, reference compound] | > 34 | 10 | 2900 | 17 | > 100000 | 0.59 | 6 | – | concentration at 29 days ([2]; 60 mg kg-1 once daily): 1560 nM; BACE1 selectivity over CatD in cells (CatD [3]; cellular inhibition of BACE1 cleavage of APP versus inhibition of CatD labelling by PF-7802): > 2,000 fold; Female ocular toxicity incidence (positive or negative animals / total evaluated) ([4]; 29 days, 60 mg kg-1 once daily): 4/4; Female ocular toxicity outcome ([4]; 29 days, 60 mg kg-1 once daily): Neg (negative (neg) if there was no ocular abnormality observed); Male ocular toxicity incidence (positive or negative animals / total evaluated) ([4]; 29 days, 60 mg kg-1 once daily): 4/4; Male ocular toxicity outcome ([4]; 29 days, 60 mg kg-1 once daily): Neg (negative (neg) if there was no ocular abnormality observed); Ocular toxicity ([4]; rats): negative for ocular toxicity; also recorded: no ocular findings; also recorded: no ocular toxicity; pKa ([7]; read-out: pKa): 6.9
7 | Cl.N [ammonium chloride] | – | – | – | – | – | – | – | – | PF-7802 labelling of CatD after lysosome neutralization (CatD in ARPE-19 cells): significantly decreased labelling of CatD
8 | CO/C1=C\C(C)=C\[C@@H](C)[C@@H](O)[C@@H](C)C/C(C)=C/C=C/[C@H](OC)[C@@H]([C@@H](C)[C@@H](O)[C@H](C)[C@@]2(O)C[C@@H](O)[C@H](C)[C@@H](C(C)C)O2)OC1=O [bafilomycin A1] | – | – | – | – | – | – | – | – | PF-7802 labelling of CatD after lysosome neutralization (CatD in ARPE-19 cells): significantly decreased labelling of CatD
